Reference: article PMC7876696 (ACS Omega, 2021)

Target: T1, Hup (histone-like DNA-binding protein of H. pylori) (Helicobacter pylori, UniProt O25506)
T1 sequence (O25506 1-94): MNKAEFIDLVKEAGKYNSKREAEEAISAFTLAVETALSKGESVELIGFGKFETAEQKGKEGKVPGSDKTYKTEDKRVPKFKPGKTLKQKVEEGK
Assay: ligand-observed 1H NMR titration

In the case of `O=C(O[C@@H]1Cc2c(O)cc(O)cc2O[C@@H]1c1cc(O)c(O)c(O)c1)c1cc(O)c(O)c(O)c1` [EGCG], the Kd is reported as 3.29 ± 0.42 µM.
